Experimental data: publication PMC12302426, “Dihydrokoumine, a dual-target analgesic with reduced side effects isolated from a traditional Chinese medicine” (Journal of Advanced Research, 2024)

Key:
M5R = target: T1, M5R (Homo sapiens, UniProt P08912); test: FLIPR assay in CHO-M5 cells (carbachol-induced Ca2+); format: cell-based; settings: DK pretreatment one hour
T1 construct: expressed in transfected cells
Protocol: FLIPR assay was carried out as reported earlier. Cell lines were seeded in 96-well plates with black walls (Greiner, USA) at 8.0 × 10^4 cells per well. After approximately 22 h of incubation, the cells were exposed to Calcium-6 dye (Molecular Devices, USA) in HBSS buffer supplemented with 20 mM HEPES (pH 7.4) at 37°C for one hour. Samples, redissolved in DMSO and housed in 96-well drug plates, underwent dilution with FLIPR buffer and subsequent automated introduction to the cells. […] […] Results were presented as fluorescence (arbitrary units) plotted against time.

dopamine receptor D1 = target: T2, dopamine receptor D1 (Homo sapiens, UniProt P21728); test: DMR desensitization assay, HEK293-D1, probe dopamine; format: cell-based; settings: 100 μM DK
T2 construct: expressed in transfected cells; host or cells: HEK293-D1
T2 sequence (P21728 whole entry): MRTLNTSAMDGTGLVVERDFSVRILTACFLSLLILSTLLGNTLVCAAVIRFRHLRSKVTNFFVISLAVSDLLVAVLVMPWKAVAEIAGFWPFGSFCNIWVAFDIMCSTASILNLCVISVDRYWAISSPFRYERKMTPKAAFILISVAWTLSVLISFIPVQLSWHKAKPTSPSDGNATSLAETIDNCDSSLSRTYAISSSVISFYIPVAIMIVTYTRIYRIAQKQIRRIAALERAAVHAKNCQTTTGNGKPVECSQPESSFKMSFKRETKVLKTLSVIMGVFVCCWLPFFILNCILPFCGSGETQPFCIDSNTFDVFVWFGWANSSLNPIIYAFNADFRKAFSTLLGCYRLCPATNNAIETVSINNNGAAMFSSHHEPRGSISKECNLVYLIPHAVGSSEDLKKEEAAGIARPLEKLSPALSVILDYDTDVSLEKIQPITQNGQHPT
Protocol: (§1) DMR assays were performed using an Epic® BT system (Corning, NY, USA). All used cell lines were directly seeded in Epic 384-well biosensor microplates with a seeding density of 25,000 cells per well. After being cultured for about 22 h, the cells formed a monolayer with a confluency of about 95 % in the cell culture medium. Then the cells were manually washed using assay buffer (1 × HBSS buffer, 10 mM HEPES, pH = 7.4) and maintained in 30 μL of the assay buffer for 1 h. All samples were dissolved in DMSO and diluted freshly with the assay buffer containing 0.1 % BSA.
(§2) The receptor selectivity was evaluated against a set of G protein-coupled receptors (GPCRs), including opioid receptor (Delta/Kappa/NOP), dopamine receptor (D1/D2), orphan receptor (GPR35), adrenergic receptor (α2A/β2), serotonin receptor (5HT2A), histamine receptor (H1) and cannabinoid receptor (CB1). Following a 1-hour pretreatment with DK, a 2-min baseline was established before introducing probes and monitoring DMR signals for another hour. The cells and probes were as follows: Delta, HEK293-Delta, SNC162; Kappa, HEK293-Kappa, ICI199441; NOP, HEK293-NOP, MCOPPB; D1, HEK293-D1, dopamine; D2, HEK293-D2, dopamine; GPR35, CHO-K1-hGPR35, zaprinast; 5HT2A, HEK293-5HT2A, 5-hydroxytryptamine; α2A, HEK293-α2A, L-Noradrenaline; β2, A431, isoprenaline; H1, A431, histamine; CB1, CHO-K1-CB1, CP 55940. […]

dopamine receptor D2 = target: T3, dopamine receptor D2 (Homo sapiens, UniProt P14416); test: DMR desensitization assay, HEK293-D2, probe dopamine; format: cell-based; settings: 100 μM DK
T3 construct: expressed in transfected cells; host or cells: HEK293-D2
T3 sequence (P14416 whole entry): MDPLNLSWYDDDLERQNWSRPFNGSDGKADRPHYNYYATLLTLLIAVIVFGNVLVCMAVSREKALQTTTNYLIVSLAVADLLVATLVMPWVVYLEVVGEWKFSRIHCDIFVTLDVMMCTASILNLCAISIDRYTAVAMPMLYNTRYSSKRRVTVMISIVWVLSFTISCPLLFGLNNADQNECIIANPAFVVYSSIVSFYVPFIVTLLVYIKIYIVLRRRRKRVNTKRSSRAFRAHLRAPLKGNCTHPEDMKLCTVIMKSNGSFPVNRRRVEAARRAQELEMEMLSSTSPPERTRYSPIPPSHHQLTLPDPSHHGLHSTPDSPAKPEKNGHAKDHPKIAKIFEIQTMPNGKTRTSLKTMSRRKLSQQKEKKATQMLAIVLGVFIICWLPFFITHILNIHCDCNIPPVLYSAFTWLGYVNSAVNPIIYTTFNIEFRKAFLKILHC
Protocol: as §1, §2

[1] = target: T4, serotonin receptor 5-HT2A (Homo sapiens, UniProt P28223); test: DMR desensitization assay, HEK293-5HT2A, probe 5-hydroxytryptamine; format: cell-based; settings: 100 μM DK
T4 construct: expressed in transfected cells; host or cells: HEK293-5HT2A
T4 sequence (P28223 whole entry): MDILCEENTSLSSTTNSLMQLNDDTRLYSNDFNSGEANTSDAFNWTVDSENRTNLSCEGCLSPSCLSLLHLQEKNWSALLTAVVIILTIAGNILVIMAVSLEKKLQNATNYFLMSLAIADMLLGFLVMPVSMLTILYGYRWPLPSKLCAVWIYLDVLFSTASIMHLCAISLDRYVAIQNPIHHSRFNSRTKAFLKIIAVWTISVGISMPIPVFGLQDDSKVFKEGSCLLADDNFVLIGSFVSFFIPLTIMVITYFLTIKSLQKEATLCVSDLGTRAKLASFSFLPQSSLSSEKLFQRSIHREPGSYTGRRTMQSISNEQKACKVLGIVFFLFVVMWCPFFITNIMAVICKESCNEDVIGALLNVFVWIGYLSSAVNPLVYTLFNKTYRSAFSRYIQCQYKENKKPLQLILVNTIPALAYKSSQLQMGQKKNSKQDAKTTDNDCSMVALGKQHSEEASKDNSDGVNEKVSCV
Protocol: as §1, §2

C57BL/6 male mice [2] = test: Hot-plate assay (acute pain); format: in vivo
Protocol: The hot-plate test in mice was conducted following previously established method. Six-week-old C57BL/6 male mice were used in hot-plate assay (n = 6). Hot-plate response latency (55°C) after drug treatment was used to measure antinociceptive effect, where response was defined by the animal either by licking paws, flicking paws or jumping. Mice were exposed to the hot plate (Ugo Basile model 7280, Comerio, Italy) for a maximum of 20 s to avoid tissue damage. After three days’ baseline measure, mice were injected intraperitoneally (5 mL/kg) with the solvent mixture, morphine (5 mg/kg) or DK (20, 40 mg/kg) and latency was tested 0.5-, 1-, 2-, 3- and 4- hours post-administration. Evaluation of MOR agonistic and M3R antagonistic activity of DK, naloxone (2 mg/kg) and oxotremorine (0.4 mg/kg) were first injected intraperitoneally, immediately followed by the injection of morphine (5 mg/kg, evaluation of MOR) or DK (20 mg/kg).

C57BL/6 male mice [3] = test: Antinociceptive tolerance, repeated injection over 7 days, hot-plate assay; format: in vivo; settings: DK 20 and 40 mg/kg daily over 7 days, compared with morphine 5 mg/kg
Protocol: Subsequent tolerance assessment was conducted through a repeated-injection protocol employing the hot-plate assay. Mice were injected intraperitoneally (5 mL/kg) with the solvent mixture, morphine (5 mg/kg) or DK (20, 40 mg/kg) daily for a continuous seven-day period. The diminishment of the antinociception of drugs in the assay was employed to evaluate the tolerance, with latency measured one hour after drug administration throughout the week.

C57BL/6 male mice [4] = test: Rotarod test (motor coordination, sedation); format: in vivo; settings: DK 20, 40 mg/kg i.p., one hour before testing
Protocol: Motor coordination were evaluated by the rotarod test, which was conducted as previously reported. Six-week-old C57BL/6 male mice were used in […] (n = 6). Mice underwent a three-day training period, twice daily (9:00 am and 3:00 pm), to make them stay balanced on the rotarod apparatus (Columbus), with a 3 cm diameter and rotating at a constant 11 rpm. Motor coordination was evaluated through mice's endurance on the rotating rod. Selection criteria included mice maintaining balance for 60–120 s. On the fourth day, mice were intraperitoneally injected (5 mL/kg) with a solvent mixture, morphine (5 mg/kg), or DK (20, 40 mg/kg) one hour before testing. Latency to fall (in seconds) was recorded after placing mice on the rotarod, with a 120-second cut-off time.

C57BL/6 mice = test: Acute toxicity study; format: in vivo; settings: 200 mg/kg daily for 14 days
Protocol: Sixteen C57BL/6 mice (25 ± 1 g, 8 males, 8 females) were used in acute toxicity studies. The mice were randomly divided into 2 groups (half male, half female each group) and treated with either solvent mixture (control) or 200 mg/kg DK (DK-treated) daily for 14 days. Throughout the study, the animals were monitored for motor activity, mortality, and body weight changes, which were recorded every other day.
At the end of the experiment (24 h after final DK administration), blood samples were collected via direct heart puncture, allowed to clot at room temperature, and centrifuged at 3000 rpm for 15 min. Serum was separated and stored at […] for biochemical analysis. Liver and renal injury markers, including aspartate transaminase (AST), alanine transaminase (ALT), UREA, CREA, albumin (ALB), urine acid (UA) and Glucose (Glu), were measured using an automatic biochemical analyzer (Chemray 240, 420 and 800, Rayto, China).
Following blood collection, the mice were sacrificed, and the heart, liver, spleen, lung and kidney were excised. These tissues were fixed in 4 % paraformaldehyde (PFA), dehydrated gradually using ethanol (50–100 %), and embedded in paraffin after clearing with xylene. Sections ([…] thick) were stained with hematoxylin and eosin (HE) for examination.

T1 sequence (P08912 whole entry): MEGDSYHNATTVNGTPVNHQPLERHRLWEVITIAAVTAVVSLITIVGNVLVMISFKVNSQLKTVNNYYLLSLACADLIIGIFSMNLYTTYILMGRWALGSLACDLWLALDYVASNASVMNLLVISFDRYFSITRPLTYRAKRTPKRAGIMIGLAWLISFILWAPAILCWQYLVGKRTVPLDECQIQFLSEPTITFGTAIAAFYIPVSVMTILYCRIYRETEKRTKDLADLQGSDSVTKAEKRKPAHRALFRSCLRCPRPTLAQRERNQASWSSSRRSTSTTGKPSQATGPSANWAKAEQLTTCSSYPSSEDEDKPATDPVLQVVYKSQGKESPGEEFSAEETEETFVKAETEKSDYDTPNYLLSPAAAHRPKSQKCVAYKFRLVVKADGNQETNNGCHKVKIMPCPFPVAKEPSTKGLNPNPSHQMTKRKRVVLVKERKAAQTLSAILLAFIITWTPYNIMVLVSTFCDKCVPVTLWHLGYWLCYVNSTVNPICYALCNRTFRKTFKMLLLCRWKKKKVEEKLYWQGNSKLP

## C=CC12CN(C)C3CC14c1ccccc1NC4C1CC2C3CO1 (centres unmarked) [DK]
M5R
  inhibition of carbachol-induced Ca2+ response: could not concentration-dependently inhibit
Dopamine receptor D1
  reduction of probe DMR response (desensitization): almost unable to reduce the response
Dopamine receptor D2
  reduction of probe DMR response (desensitization): almost unable to reduce the response
[1]
  reduction of probe DMR response (desensitization): almost unable to reduce the response
C57BL/6 male mice [2]; DK 20 mg/kg, naloxone 2 mg/kg
  effect of naloxone on pain threshold in hot plate assay: naloxone failed to decrease the pain threshold of DK
C57BL/6 male mice [2]; DK 20 mg/kg, oxotremorine 0.4 mg/kg
  effect of oxotremorine on antinociception in hot plate assay: oxotremorine markedly diminished the antinociceptive efficacy of DK
C57BL/6 male mice [2]; DK 20, 40 mg/kg i.p.
  duration of antinociception: at least 3 h
C57BL/6 male mice [2]; DK 20, 40 mg/kg i.p., 55°C
  antinociception (hot-plate response latency): potent antinociception in a dose-dependent manner
C57BL/6 male mice [3]
  antinociceptive tolerance: no antinociceptive tolerance was observed
C57BL/6 male mice [4]
  sedative effect (locomotion, latency to fall): not a sedative at the tested doses
C57BL/6 mice
  body weight gain: no significant differences between DK-treated and control groups
  organ coefficients (heart, liver, spleen, lung, kidney): comparable between the two groups
  serum biochemical indicators and histological analysis of major organs (HE staining): no significant structural or biochemical differences
  visible abnormalities of major organs: No visible abnormalities were detected in the major organs
